Values after ≈ are worked out from the molar mass of the structure shown. Active and inactive are the calls of the source. No cut-off for these calls is given here.
How the values were obtained:
[1] = Selectivity ratio of IC50 for inhibition of FITC-geldanamycin binding to N-terminal GRP94 (unknown origin) to IC50 for inhibition of FITC-geldanamycin binding to N-terminal HSP90alpha (unknown origin)
[2] = molecular target: T1, Heat shock protein HSP90 (Homo sapiens) (UniProt P07900+P08238); test: Inhibition of HSP90 in human HCT-116 cells assessed as reduction in AKT protein expression after 24 hrs by Western blot analysis; format: cell-based; details: dose 0.01-3 µM
[3] = molecular target: T1, Heat shock protein HSP90 (Homo sapiens); test: Inhibition of HSP90 in human HCT-116 cells assessed as reduction in Erk protein expression after 24 hrs by Western blot analysis; format: cell-based; details: dose 0.01-3 µM
[4] = molecular target: T1, Heat shock protein HSP90 (Homo sapiens); test: Inhibition of HSP90 in human HCT-116 cells assessed as reduction in phosphorylated Erk after 24 hrs by Western blot analysis; format: cell-based; details: dose 0.01-3 µM
[5] = molecular target: T1, Heat shock protein HSP90 (Homo sapiens); test: Inhibition of HSP90 in human HCT-116 cells assessed as induction of HSP70 expression after 24 hrs by Western blot analysis; format: cell-based; details: dose 0.01-3 µM
[6] = test system: Rattus norvegicus; test: Ex vivo inhibition of HSP90 in Sprague-Dawley rat assessed as up regulation of HSP70 expression in retina at 20 mg/kg, iv administered for 2 consecutive days and measured 24 hrs post last dose by Western blot analysis; format: functional, organism-based; details: time 3.0 day
[7] = test system: Rattus norvegicus; test: Ex vivo inhibition of HSP90 in Sprague-Dawley rat assessed as up regulation of HSP70 expression in retina at 20 mg/kg, iv administered for 2 consecutive days and measured 24 hrs post last dose by immunohistochemistry analysis; format: functional, organism-based; details: time 3.0 day
[8] = test system: HCT-116; test: Antitumor activity against human HCT-116 cells xenografted in nude mouse assessed as decrease in tumor cells at 40 to 60 mg/kg, ip administered every other day for 16 days by hematoxylin and eosin staining based assay; details: dose 40-60 mg/kg, time 16.0 day
[9] = test system: Mus musculus; test: In vivo inhibition of HSP90 in nude mouse xenografted with human HCT-116 cells assessed as decrease in Akt protein level in tumor at 40 to 60 mg/kg, ip administered every other day for 16 days and measured after 12 hrs post last dose by Western blot analysis; details: dose 40-60 mg/kg, time 16.0 day
[10] = test system: Mus musculus; test: In vivo inhibition of HSP90 in nude mouse xenografted with human HCT-116 cells assessed as decrease in Erk protein level in tumor at 40 to 60 mg/kg, ip administered every other day for 16 days and measured after 12 hrs post last dose by Western blot analysis; details: dose 40-60 mg/kg, time 16.0 day
[11] = test system: Mus musculus; test: In vivo inhibition of HSP90 in nude mouse xenografted with human HCT-116 cells assessed as upregulation of HSP90 protein expression in tumor at 40 to 60 mg/kg, ip administered every other day for 16 days and measured after 12 hrs post last dose by Western blot analysis; details: dose 40-60 mg/kg, time 16.0 day
[12] = test system: Mus musculus; test: In vivo inhibition of HSP90 in nude mouse xenografted with human HCT-116 cells assessed as upregulation of HSP70 protein expression in tumor at 40 to 60 mg/kg, ip administered every other day for 16 days and measured after 12 hrs post last dose by Western blot analysis; details: dose 40-60 mg/kg, time 16.0 day
[13] = Distribution coefficient, logD of compound at pH 7.4; format: physicochemical; details: octanol/water
[14] = molecular target: Heat shock protein HSP 90-alpha (Homo sapiens, UniProt P07900); test: Displacement of FITC-geldanamycin from N-terminal HSP90alpha (unknown origin) after 30 mins by fluorescence polarization competitive binding assay
[15] = Permeability of the compound at pH 7.4 by PAMPA; format: ADME; details: read-out: permeability
[16] = Intrinsic aqueous solubility of the compound; format: physicochemical
[17] = molecular target: Endoplasmin (Homo sapiens, UniProt P14625); test: Displacement of FITC-geldanamycin from N-terminal GRP94 (unknown origin) after 30 mins by fluorescence polarization competitive binding assay
[18] = test system: MDA-MB-231; test: Antiproliferative activity against human MDA-MB-231 assessed as reduction in cell viability incubated for 72 hrs by MTT assay; format: functional, cell-based; details: MDA-MB-231, 72 h
[19] = test system: MDA-MB-468; test: Antiproliferative activity against human MDA-MB-468 assessed as reduction in cell viability incubated for 72 hrs by MTT assay; format: functional, cell-based; details: MDA-MB-468, 72 h
[20] = test system: SK-BR-3; test: Antiproliferative activity against human SK-BR-3 assessed as reduction in cell viability incubated for 72 hrs by MTT assay; format: functional, cell-based; details: SK-BR-3, 72 h
[21] = test system: T47D; test: Antiproliferative activity against human T47D assessed as reduction in cell viability incubated for 72 hrs by MTT assay; format: functional, cell-based
[22] = test system: BT-474; test: Antiproliferative activity against human BT-474 assessed as reduction in cell viability incubated for 72 hrs by MTT assay; format: functional, cell-based; details: BT-474, 72 h
[23] = test system: U2OS; test: Antiproliferative activity against human U2OS assessed as reduction in cell viability incubated for 72 hrs by MTT assay; format: functional, cell-based
[24] = test system: MKN-28; test: Antiproliferative activity against human MKN-28 assessed as reduction in cell viability incubated for 72 hrs by MTT assay; format: functional, cell-based; details: MKN-28, 72 h
[25] = test system: A549; test: Antiproliferative activity against human A549 assessed as reduction in cell viability incubated for 72 hrs by MTT assay; format: functional, cell-based; details: A549, 72 h
[26] = test system: HepG2; test: Antiproliferative activity against human HepG2 assessed as reduction in cell viability incubated for 72 hrs by MTT assay; format: functional, cell-based; details: HepG2, 72 h
[27] = test system: K562; test: Antiproliferative activity against human K562 assessed as reduction in cell viability incubated for 72 hrs by MTT assay; format: functional, cell-based; details: K562, 72 h
[28] = test system: MV4-11; test: Antiproliferative activity against human MV4-11 assessed as reduction in cell viability incubated for 72 hrs by MTT assay; format: functional, cell-based; details: MV4-11, 72 h
[29] = test system: L02; test: Cytotoxicity against human L02 cells assessed as reduction in cell viability incubated for 72 hrs by MTT assay; format: cell-based; details: L02, 72 h
[30] = Half life in human liver microsomes at 1 uM preincubated for 5 mins followed by NADPH addition and measured up to 120 mins by LC-MS/MS analysis; format: ADME, Microsome; details: 2 h, time <=125 min
[31] = Intrinsic clearance in human liver microsomes at 1 uM preincubated for 5 mins followed by NADPH addition and measured up to 120 mins by LC-MS/MS analysis; format: ADME, Microsome; details: 2 h, time <=125 min
[32] = Metabolic stability in human liver microsomes assessed as parent compound remaining at 1 uM preincubated for 5 mins followed by NADPH addition and measured up to 120 mins by LC-MS/MS analysis; format: ADME, Microsome; details: 2 h, time <=125 min
[33] = test system: HCT-116; test: cells; details: Homo sapiens, HCT-116, 72 h
Description: Antiproliferative activity against human HCT-116 cells assessed as reduction in cell viability incubated for 72 hrs by MTT assay

[34] = test system: MCF7; test: cells; details: Homo sapiens, MCF7, 72 h
[35] = molecular target: CYP2D6 (Homo sapiens, UniProt P10635); test: Inhibition of CYP2D6 in human liver microsomes at 10 uM using dextromethorphan as substrate preincubated for 5 mins followed by NADPH addition and measured after 20 mins by LC-MS/MS analysis relative to control; format: ADME; details: probe dextromethorphan, time 25 min
[36] = molecular target: CYP3A4 (Homo sapiens, UniProt P08684); test: Inhibition of CYP3A4 in human liver microsomes at 10 uM using midazolam as substrate preincubated for 5 mins followed by NADPH addition and measured after 20 mins by LC-MS/MS analysis relative to control; format: ADME; details: probe midazolam, time 25 min
CYP3A4, sequence (P08684 whole entry): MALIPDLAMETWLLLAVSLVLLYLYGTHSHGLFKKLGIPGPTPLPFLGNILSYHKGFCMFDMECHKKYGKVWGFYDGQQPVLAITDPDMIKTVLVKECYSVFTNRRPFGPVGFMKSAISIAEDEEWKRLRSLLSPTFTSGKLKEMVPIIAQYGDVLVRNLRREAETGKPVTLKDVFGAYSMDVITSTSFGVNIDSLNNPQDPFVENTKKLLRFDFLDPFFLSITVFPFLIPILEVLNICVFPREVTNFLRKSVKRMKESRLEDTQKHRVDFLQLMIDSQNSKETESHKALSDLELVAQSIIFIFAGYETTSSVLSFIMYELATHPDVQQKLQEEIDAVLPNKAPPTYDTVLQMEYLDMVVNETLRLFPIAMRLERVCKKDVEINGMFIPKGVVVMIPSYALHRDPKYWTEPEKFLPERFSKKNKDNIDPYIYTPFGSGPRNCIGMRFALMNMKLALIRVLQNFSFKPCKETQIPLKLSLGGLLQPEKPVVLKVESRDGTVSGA

Endoplasmin, sequence (P14625 whole entry): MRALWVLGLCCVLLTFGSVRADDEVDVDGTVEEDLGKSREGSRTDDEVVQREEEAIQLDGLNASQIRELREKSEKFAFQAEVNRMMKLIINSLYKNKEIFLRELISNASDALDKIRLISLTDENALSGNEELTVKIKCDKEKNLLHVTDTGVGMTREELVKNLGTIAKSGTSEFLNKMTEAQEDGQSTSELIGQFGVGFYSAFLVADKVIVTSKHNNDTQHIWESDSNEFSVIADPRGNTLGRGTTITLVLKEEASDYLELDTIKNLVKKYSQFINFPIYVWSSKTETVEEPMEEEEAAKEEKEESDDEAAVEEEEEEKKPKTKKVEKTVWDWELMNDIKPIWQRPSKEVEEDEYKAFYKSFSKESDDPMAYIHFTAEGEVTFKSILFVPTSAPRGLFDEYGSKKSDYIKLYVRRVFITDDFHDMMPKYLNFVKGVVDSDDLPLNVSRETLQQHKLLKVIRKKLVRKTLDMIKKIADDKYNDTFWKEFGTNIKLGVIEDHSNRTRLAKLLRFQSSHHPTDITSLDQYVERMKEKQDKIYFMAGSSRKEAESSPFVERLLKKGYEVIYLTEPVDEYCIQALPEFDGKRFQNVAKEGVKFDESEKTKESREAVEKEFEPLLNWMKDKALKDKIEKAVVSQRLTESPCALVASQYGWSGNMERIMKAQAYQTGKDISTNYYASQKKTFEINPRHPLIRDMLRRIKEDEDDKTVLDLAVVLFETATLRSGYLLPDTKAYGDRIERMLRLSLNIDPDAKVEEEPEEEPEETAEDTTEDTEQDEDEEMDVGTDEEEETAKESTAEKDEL
CYP2D6, sequence (P10635 whole entry): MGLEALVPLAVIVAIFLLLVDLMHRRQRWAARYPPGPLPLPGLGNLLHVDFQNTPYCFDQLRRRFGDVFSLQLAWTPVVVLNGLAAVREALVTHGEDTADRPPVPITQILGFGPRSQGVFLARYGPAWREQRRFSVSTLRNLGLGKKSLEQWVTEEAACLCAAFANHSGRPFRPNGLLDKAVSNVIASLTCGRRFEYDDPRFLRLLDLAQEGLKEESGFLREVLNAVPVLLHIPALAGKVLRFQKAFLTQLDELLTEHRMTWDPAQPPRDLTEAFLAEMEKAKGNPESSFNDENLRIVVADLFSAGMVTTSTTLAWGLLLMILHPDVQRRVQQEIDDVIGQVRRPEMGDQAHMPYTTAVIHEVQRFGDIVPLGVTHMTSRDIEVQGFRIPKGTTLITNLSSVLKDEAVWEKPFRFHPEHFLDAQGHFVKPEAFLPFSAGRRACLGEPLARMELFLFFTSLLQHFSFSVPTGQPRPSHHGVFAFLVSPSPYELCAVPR

For `CCNc1nc(OCCOC)nc2c1CN(C(=O)c1cc(C(C)C)c(O)cc1O)CC2`, the Ratio IC50 [1] was 26, the inhibition [2] was “Dose-dependent effect” and the inhibition [3] was “Dose-dependent effect”. The inhibition [4] was “Dose-dependent effect”, the inhibition [5] was “Dose-dependent effect” and the inhibition [6] was “inactive”. For the same compound, the inhibition [7] was “inactive”, the Activity [8] was “Active” and the inhibition [9] was “Active”. For the same compound, the inhibition [10] was “Active”, the inhibition [11] was “Active” and the inhibition [12] was “Active”.
Work on `CCCOc1nc(OCCOC)nc2c1CN(C(=O)c1cc(C(C)C)c(O)cc1O)CC2` yielded a logD [13] of 3.59, an IC50 [14] of 36 nM and a Papp [15] of 87.7 ×10⁻⁶ cm/s. For the same compound, the solubility [16] was 73.6 µg/mL (≈ 165 µM), the IC50 [17] was 929 nM and the Ratio IC50 [1] was 25.8. For the same compound, the IC50 [18] was 122 nM, the IC50 [19] was 139 nM and the IC50 [20] was 220 nM. For the same compound, the IC50 [21] was 178 nM, the IC50 [22] was 118 nM and the IC50 [23] was 171 nM. It also gave an IC50 [24] of 407 nM, an IC50 [25] of 60 nM and an IC50 [26] of 222 nM. The IC50 [27] was 150 nM, the IC50 [28] was 18 nM and the IC50 [29] was 30900 nM. For the same compound, the inhibition [2] was “Dose-dependent effect”, the inhibition [3] was “Dose-dependent effect” and the inhibition [4] was “Dose-dependent effect”. For the same compound, the inhibition [5] was “Dose-dependent effect”, the t1/2 [30] was 1.15 h and the CLint [31] was 13.7 mL/min/kg. It also gave a Stabilty [32] of 59.5%, an IC50 [33] of 120 nM and an IC50 [34] of 40 nM.
With `C=C[C@H]1C[N@@]2CC[C@H]1C[C@@H]2[C@@H](O)c1ccnc2ccc(OC)cc12` [QUINIDINE] the inhibition at 20 min, 10 µM [35] was 89%.
`CC(=O)N1CCN(c2ccc(OCC3COC(Cn4ccnc4)(c4ccc(Cl)cc4Cl)O3)cc2)CC1` (stereo unspecified) [KETOCONAZOLE] showed an inhibition at 20 min, 10 µM [36] of 72%.

— ChEMBL document CHEMBL4706476, “Novel Tetrahydropyrido[4,3-d]pyrimidines as Potent Inhibitors of Chaperone Heat Shock Protein 90” (J Med Chem, 2016)
